Source: US20240293379A1, “THERAPEUTIC AGENT FOR CANCER OF PATIENT WITH DECREASE IN RB1 FUNCTION USING MYT1 INHIBITOR AND CHEMOTHERAPEUTIC AGENT IN COMBINATION, AND TREATMENT METHOD THEREOF” (Chugai Seiyaku Kabushiki Kaisha, priority 2022, published 2024)

What was measured:
Experiment in all cases: Pemetrexed cytotoxicity test upon suppression of expression of MYT1
Format in all cases: cell-based
A549 = A549 (RB1 wild-type)
Method: (§1) Thereafter, the plates were shaken to transfect each siRNA at a final concentration of 10 nM.
(§2) The −Log 2 value of fold change of IC50 and the maximum value of Bliss score, which are indexes of the combination effect, were calculated by comparing with the actually obtained cell survival curve, and described in Table 6 (see Non Patent Literature 9).

ABC-1 = ABC-1 (RB1 wild-type)
Method: as §1, §2

ChaGo-K-1 = ChaGo-K-1 (RB1 mutant)
Method: as §1, §2

EKVX = EKVX (RB1 wild-type)
Method: as §1, §2

HOP-62 = HOP-62 (RB1 wild-type)
Method: as §1, §2

LU65 = LU65 (RB1 mutant)
Method: as §1, §2

NCI-H1155 = NCI-H1155 (RB1 mutant)
Method: as §1, §2

NCI-H1666 = NCI-H1666 (RB1 wild-type)
Method: as §1, §2

NCI-H1993 = NCI-H1993 (RB1 wild-type)
Method: as §1, §2

NCI-H2110 = NCI-H2110 (RB1 mutant)
Method: as §1, §2

NCI-H2122 = NCI-H2122 (RB1 wild-type)
Method: as §1, §2

NCI-H292 = NCI-H292 (RB1 wild-type)
Method: as §1, §2

NCI-H322 = NCI-H322 (RB1 wild-type)
Method: as §1, §2

NCI-H358 = NCI-H358 (RB1 wild-type)
Method: as §1, §2

NCI-H441 = NCI-H441 (RB1 wild-type)
Method: as §1, §2

NCI-H460 = NCI-H460 (RB1 wild-type)
Method: as §1, §2

NCI-H596 = NCI-H596 (RB1 mutant)
Method: as §1, §2

NCI-H661 = NCI-H661 (RB1 wild-type)
Method: as §1, §2

PC-9 = PC-9 (RB1 wild-type)
Method: as §1, §2

[1] = pemetrexed + MYT1 siRNA #16 10 nM
[2] = pemetrexed + MYT1 siRNA #18 10 nM

MYT1 #16: ON-TARGETplus individual siRNA, Dharmacon product code J-005026-16, nucleotide sequence SEQ ID No: 4 (GGACCUAAGUGACAUCAAC; chemistry not fully specified)
Cytotoxic activity of siRNA alone, MYT1 #16 (A549; 10 nM, no pemetrexed): −3.683% | Bliss score maximum value, MYT1 #16 (A549; [1]): 17.634 | HSA score maximum value, MYT1 #16 (A549; [1]): 15.047 | Cytotoxic activity of siRNA alone, MYT1 #16 (ABC-1; 10 nM, no pemetrexed): 3.870% | Bliss score maximum value, MYT1 #16 (ABC-1; [1]): 21.970 | HSA score maximum value, MYT1 #16 (ABC-1; [1]): 25.475 | Cytotoxic activity of siRNA alone, MYT1 #16 (ChaGo-K-1; 10 nM, no pemetrexed): −1.049% | Bliss score maximum value, MYT1 #16 (ChaGo-K-1; [1]): 40.066 | HSA score maximum value, MYT1 #16 (ChaGo-K-1; [1]): 39.075 | Cytotoxic activity of siRNA alone, MYT1 #16 (EKVX; 10 nM, no pemetrexed): −1.125% | Bliss score maximum value, MYT1 #16 (EKVX; [1]): 16.454 | HSA score maximum value, MYT1 #16 (EKVX; [1]): 15.771 | Cytotoxic activity of siRNA alone, MYT1 #16 (HOP-62; 10 nM, no pemetrexed): 8.347% | Bliss score maximum value, MYT1 #16 (HOP-62; [1]): 20.165 | HSA score maximum value, MYT1 #16 (HOP-62; [1]): 24.453 | Cytotoxic activity of siRNA alone, MYT1 #16 (LU65; 10 nM, no pemetrexed): 8.109% | Bliss score maximum value, MYT1 #16 (LU65; [1]): 29.374 | HSA score maximum value, MYT1 #16 (LU65; [1]): 34.405 | Cytotoxic activity of siRNA alone, MYT1 #16 (NCI-H1155; 10 nM, no pemetrexed): 5.782% | Bliss score maximum value, MYT1 #16 (NCI-H1155; [1]): 77.287 | HSA score maximum value, MYT1 #16 (NCI-H1155; [1]): 76.586 | Cytotoxic activity of siRNA alone, MYT1 #16 (NCI-H1666; 10 nM, no pemetrexed): −4.467% | Bliss score maximum value, MYT1 #16 (NCI-H1666; [1]): 8.127 | HSA score maximum value, MYT1 #16 (NCI-H1666; [1]): 5.753 | Cytotoxic activity of siRNA alone, MYT1 #16 (NCI-H1993; 10 nM, no pemetrexed): 35.910% | Bliss score maximum value, MYT1 #16 (NCI-H1993; [1]): 5.736 | HSA score maximum value, MYT1 #16 (NCI-H1993; [1]): 21.843 | Cytotoxic activity of siRNA alone, MYT1 #16 (NCI-H2110; 10 nM, no pemetrexed): 15.886% | Bliss score maximum value, MYT1 #16 (NCI-H2110; [1]): 24.584 | HSA score maximum value, MYT1 #16 (NCI-H2110; [1]): 36.712 | Cytotoxic activity of siRNA alone, MYT1 #16 (NCI-H2122; 10 nM, no pemetrexed): 11.825% | Bliss score maximum value, MYT1 #16 (NCI-H2122; [1]): 15.749 | HSA score maximum value, MYT1 #16 (NCI-H2122; [1]): 20.659 | Cytotoxic activity of siRNA alone, MYT1 #16 (NCI-H292; 10 nM, no pemetrexed): 19.878% | Bliss score maximum value, MYT1 #16 (NCI-H292; [1]): 19.031 | HSA score maximum value, MYT1 #16 (NCI-H292; [1]): 21.907 | Cytotoxic activity of siRNA alone, MYT1 #16 (NCI-H322; 10 nM, no pemetrexed): −10.363% | Bliss score maximum value, MYT1 #16 (NCI-H322; [1]): 24.679 | Cytotoxic activity of siRNA alone, MYT1 #16 (NCI-H358; 10 nM, no pemetrexed): 0.021% | Bliss score maximum value, MYT1 #16 (NCI-H358; [1]): 12.322 | HSA score maximum value, MYT1 #16 (NCI-H358; [1]): 12.336 | Cytotoxic activity of siRNA alone, MYT1 #16 (NCI-H441; 10 nM, no pemetrexed): 12.986% | Bliss score maximum value, MYT1 #16 (NCI-H441; [1]): 21.600 | HSA score maximum value, MYT1 #16 (NCI-H441; [1]): 30.794 | Cytotoxic activity of siRNA alone, MYT1 #16 (NCI-H460; 10 nM, no pemetrexed): −6.609% | Bliss score maximum value, MYT1 #16 (NCI-H460; [1]): 17.443 | HSA score maximum value, MYT1 #16 (NCI-H460; [1]): 9.093 | Cytotoxic activity of siRNA alone, MYT1 #16 (NCI-H596; 10 nM, no pemetrexed): 13.549% | Bliss score maximum value, MYT1 #16 (NCI-H596; [1]): 56.598 | HSA score maximum value, MYT1 #16 (NCI-H596; [1]): 67.277 | Cytotoxic activity of siRNA alone, MYT1 #16 (NCI-H661; 10 nM, no pemetrexed): 20.313% | Bliss score maximum value, MYT1 #16 (NCI-H661; [1]): 8.081 | HSA score maximum value, MYT1 #16 (NCI-H661; [1]): 22.502 | Cytotoxic activity of siRNA alone, MYT1 #16 (PC-9; 10 nM, no pemetrexed): −5.180% | Bliss score maximum value, MYT1 #16 (PC-9; [1]): 35.148

MYT1 #18: ON-TARGETplus individual siRNA, Dharmacon product code J-005026-18, nucleotide sequence SEQ ID No: 5 (CUUCCGAGCUGCGUUCUGU; chemistry not fully specified)
Cytotoxic activity of siRNA alone, MYT1 #18 (A549; 10 nM, no pemetrexed): 0.844% | Bliss score maximum value, MYT1 #18 (A549; [2]): 9.581 | HSA score maximum value, MYT1 #18 (A549; [2]): 10.174 | Cytotoxic activity of siRNA alone, MYT1 #18 (ABC-1; 10 nM, no pemetrexed): 7.811% | Bliss score maximum value, MYT1 #18 (ABC-1; [2]): 22.139 | Cytotoxic activity of siRNA alone, MYT1 #18 (ChaGo-K-1; 10 nM, no pemetrexed): −2.748% | Bliss score maximum value, MYT1 #18 (ChaGo-K-1; [2]): 34.464 | HSA score maximum value, MYT1 #18 (ChaGo-K-1; [2]): 32.605 | Cytotoxic activity of siRNA alone, MYT1 #18 (EKVX; 10 nM, no pemetrexed): 1.053% | Bliss score maximum value, MYT1 #18 (EKVX; [2]): 6.653 | HSA score maximum value, MYT1 #18 (EKVX; [2]): 7.060 | Cytotoxic activity of siRNA alone, MYT1 #18 (HOP-62; 10 nM, no pemetrexed): 10.654% | Bliss score maximum value, MYT1 #18 (HOP-62; [2]): 20.375 | HSA score maximum value, MYT1 #18 (HOP-62; [2]): 25.849 | Cytotoxic activity of siRNA alone, MYT1 #18 (LU65; 10 nM, no pemetrexed): −0.297% | Bliss score maximum value, MYT1 #18 (LU65; [2]): 34.154 | HSA score maximum value, MYT1 #18 (LU65; [2]): 33.984 | Cytotoxic activity of siRNA alone, MYT1 #18 (NCI-H1155; 10 nM, no pemetrexed): 30.960% | Bliss score maximum value, MYT1 #18 (NCI-H1155; [2]): 23.341 | HSA score maximum value, MYT1 #18 (NCI-H1155; [2]): 32.708 | Cytotoxic activity of siRNA alone, MYT1 #18 (NCI-H1666; 10 nM, no pemetrexed): 1.456% | Bliss score maximum value, MYT1 #18 (NCI-H1666; [2]): 13.160 | HSA score maximum value, MYT1 #18 (NCI-H1666; [2]): 13.970 | Cytotoxic activity of siRNA alone, MYT1 #18 (NCI-H1993; 10 nM, no pemetrexed): 10.347% | Bliss score maximum value, MYT1 #18 (NCI-H1993; [2]): 7.046 | HSA score maximum value, MYT1 #18 (NCI-H1993; [2]): 14.207 | Cytotoxic activity of siRNA alone, MYT1 #18 (NCI-H2110; 10 nM, no pemetrexed): 9.660% | Bliss score maximum value, MYT1 #18 (NCI-H2110; [2]): 23.200 | HSA score maximum value, MYT1 #18 (NCI-H2110; [2]): 28.531 | Cytotoxic activity of siRNA alone, MYT1 #18 (NCI-H2122; 10 nM, no pemetrexed): 5.899% | Bliss score maximum value, MYT1 #18 (NCI-H2122; [2]): 13.938 | Cytotoxic activity of siRNA alone, MYT1 #18 (NCI-H292; 10 nM, no pemetrexed): 11.155% | Bliss score maximum value, MYT1 #18 (NCI-H292; [2]): 6.895 | HSA score maximum value, MYT1 #18 (NCI-H292; [2]): 11.985 | Cytotoxic activity of siRNA alone, MYT1 #18 (NCI-H322; 10 nM, no pemetrexed): −6.271% | Bliss score maximum value, MYT1 #18 (NCI-H322; [2]): 23.827 | HSA score maximum value, MYT1 #18 (NCI-H322; [2]): 19.509 | Cytotoxic activity of siRNA alone, MYT1 #18 (NCI-H358; 10 nM, no pemetrexed): 2.693% | Bliss score maximum value, MYT1 #18 (NCI-H358; [2]): 13.168 | HSA score maximum value, MYT1 #18 (NCI-H358; [2]): 14.592 | Cytotoxic activity of siRNA alone, MYT1 #18 (NCI-H441; 10 nM, no pemetrexed): 22.238% | Bliss score maximum value, MYT1 #18 (NCI-H441; [2]): 0.784 | HSA score maximum value, MYT1 #18 (NCI-H441; [2]): 17.896 | Cytotoxic activity of siRNA alone, MYT1 #18 (NCI-H460; 10 nM, no pemetrexed): −2.387% | HSA score maximum value, MYT1 #18 (NCI-H460; [2]): 9.099 | Cytotoxic activity of siRNA alone, MYT1 #18 (NCI-H596; 10 nM, no pemetrexed): −2.058% | Bliss score maximum value, MYT1 #18 (NCI-H596; [2]): 44.329 | HSA score maximum value, MYT1 #18 (NCI-H596; [2]): 42.707 | Cytotoxic activity of siRNA alone, MYT1 #18 (NCI-H661; 10 nM, no pemetrexed): 9.766% | Bliss score maximum value, MYT1 #18 (NCI-H661; [2]): 11.699 | HSA score maximum value, MYT1 #18 (NCI-H661; [2]): 16.633 | Cytotoxic activity of siRNA alone, MYT1 #18 (PC-9; 10 nM, no pemetrexed): −9.517% | Bliss score maximum value, MYT1 #18 (PC-9; [2]): 18.833 | HSA score maximum value, MYT1 #18 (PC-9; [2]): 14.476
